Test results from PubChem BioAssay (NCI).
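These data come from cells grown in 96-well plates and exposed to compound for 48 hours at five concentrations. GI50: concentration for 50% inhibition of growth. TGI is the concentration that stops growth completely.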

Tested on: NCI-H460 lung
Experiment: NCI-60 cell line screen, 48 h

`CC(C)(C)[Si](C)(C)OC1C(=O)C[C@H]2CCCC[C@@H]12` (stereo partly drawn) and `[N-]=[N+]=N/C1=C/CCCCC(=O)C1` cannot be ordered by TGI: over 100 µM for the first, over 100 µM for the second.

First: CCN(CC)CCSc1c2ccccc2nc2c(OC)ccc(OC)c12
Second: CN(C)CCNC(=O)c1cccc2c(Nc3ccc(S(=O)(=O)N=C(N)N)cc3)c3ccccc3nc12
The TGI of the first is 1.9-fold higher: 36.4 µM for the first, 18.7 µM for the second.

`COc1cc(/C=C\c2cc(OC)c(OC)c(OC)c2)cc(N/C=C\C(=O)c2cc(OC)c(OC)c(OC)c2)c1OC` and `CCOC(=O)c1ccc(N=Nc2cc(C(=O)OCC)ccc2O)cc1` cannot be ordered by TGI: over 100 µM for the first, over 100 µM for the second.

`Clc1nc(Cl)nc(Nc2cccc3ccccc23)n1` and `Cc1ccc(NC(=O)CCc2nnc(N)o2)cc1` cannot be ordered by TGI: over 100 µM for the first, over 100 µM for the second.

`CCOC(=O)C1SC(=Nc2ccccc2)N=C1C` (stereo not drawn) and `CC1(C)CC(=O)CC(=Nc2ccc([N+](=O)[O-])cc2)C1` cannot be ordered by TGI: over 100 µM for the first, over 100 µM for the second.

Going from `O=C1CCC(=O)c2c1c(O)c1ccncc1c2O` to `COC(=O)C1=C(C(=O)OC)C2=S(SC3=C2CCCC3)S1` (stereo not drawn), the TGI rises from 30.7 µM to over 100 µM.

`C=CCN1CCC23c4c5ccc(O)c4OC2C(=NN=C2CCC4(O)C6Cc7ccc(O)c8c7C4(CCN6CC=C)C2O8)CCC3(O)C1C5` (stereo not drawn) showed a TGI of 43.7 µM.

First: COc1cc(/C=C\c2cc(OC)c(OC)c(OC)c2)cc(N/C=C\C(=O)c2cc(OC)c(OC)c(OC)c2)c1OC
Second: Clc1nc(Cl)nc(Nc2cccc3ccccc23)n1
The GI50 of the first is lower: 3.93 µM for the first, over 100 µM for the second.

Tested on: RXF 393 renal
Experiment: NCI-60 cell line screen, 48 h

Going from `C=CCC1(CN(C)C)CC/C(=C\c2ccc(Cl)cc2)C1=O` (stereo not drawn) to `CC(=O)N1CCC(=O)/C(=C/c2ccccc2)C1`, the TGI falls from over 72.9 µM to 67.6 µM.

`C[N+](C)(C)CC1CCC/C1=N\OC(=O)c1ccccc1` (stereo not drawn) and `CCOC(=O)C1SC(=Nc2ccccc2)N=C1C` (stereo not drawn) cannot be ordered by TGI: over 100 µM for the first, over 100 µM for the second.

Going from `CCCCCCCN=C(N)c1ccc(N2CCN(c3ccc(C(N)=NCCCCCCC)cc3)CC2)cc1` to `CCOC(=O)c1ccc(N=Nc2cc(C(=O)OCC)ccc2O)cc1`, the TGI rises from 6.69 µM to over 100 µM.

Compared with `C[Si](C)(C)/C(Br)=C\CCN1C(=O)CCC1=O`, `O=C1CCC(=O)c2c1c(O)c1ccncc1c2O` is lower in TGI: over 100 µM for the first, 35.6 µM for the second.

`Cc1ccc(S(=O)OCc2c(C)c(C)c(COS(=O)c3ccc(C)cc3)c(C)c2C)cc1` (stereo not drawn) and `CN(C)CCNC(=O)c1cccc2c(Nc3ccc(S(=O)(=O)N=C(N)N)cc3)c3ccccc3nc12` cannot be ordered by TGI: over 100 µM for the first, over 100 µM for the second.

`C[C@]12CCC(=O)C=C1CC[C@@H]1C2CC[C@]2(C)Nc3[nH]ncc3CC12` (stereo partly drawn) and `CC(C)(C)[Si](C)(C)OC1C(=O)C[C@H]2CCCC[C@@H]12` (stereo partly drawn) cannot be ordered by TGI: over 100 µM for the first, over 100 µM for the second.

First: CCN(CC)CCSc1c2ccccc2nc2c(OC)ccc(OC)c12
Second: Cc1ccc(NC(=O)CCc2nnc(N)o2)cc1
The TGI of the first is lower: 3.94 µM for the first, over 100 µM for the second.

Going from `[N-]=[N+]=N/C1=C/CCCCC(=O)C1` to `COC(=O)C1=C(C(=O)OC)C2=S(SC3=C2CCCC3)S1` (stereo not drawn), the TGI falls from over 100 µM to 32.3 µM.

For `CC1(C)CC(=O)CC(=Nc2ccc([N+](=O)[O-])cc2)C1`, the TGI was over 100 µM.

For `CCCCCCCN=C(N)c1ccc(N2CCN(c3ccc(C(N)=NCCCCCCC)cc3)CC2)cc1`, the GI50 was 2.46 µM.

Tested on: SF-539 CNS
Experiment: NCI-60 cell line screen, 48 h

`Cn1cnnc1Sc1c([N+](=O)[O-])ncn1C` and `CCN(CC)CCSc1c2ccccc2nc2c(OC)ccc(OC)c12` cannot be ordered by TGI: over 100 µM for the first, over 33.9 µM for the second.

`C=CCC1(CN(C)C)CC/C(=C\c2ccc(Cl)cc2)C1=O` (stereo not drawn) and `CC(=O)N1CCC(=O)/C(=C/c2ccccc2)C1` cannot be ordered by TGI: over 83.8 µM for the first, over 100 µM for the second.

Compared with `C[Si](C)(C)/C(I)=C/CO`, `C[Si](C)(C)/C(Br)=C\CCN1C(=O)CCC1=O` is higher in TGI: 39.9 µM for the first, over 100 µM for the second.

`C[N+](C)(C)CC1CCC/C1=N\OC(=O)c1ccccc1` (stereo not drawn) and `CCOC(=O)C1SC(=Nc2ccccc2)N=C1C` (stereo not drawn) cannot be ordered by TGI: over 100 µM for the first, over 100 µM for the second.

`Cc1ccc(S(=O)OCc2c(C)c(C)c(COS(=O)c3ccc(C)cc3)c(C)c2C)cc1` (stereo not drawn) and `CCOC(=O)c1ccc(N=Nc2cc(C(=O)OCC)ccc2O)cc1` cannot be ordered by TGI: over 100 µM for the first, over 100 µM for the second.

`C[C@]12CCC(=O)C=C1CC[C@@H]1C2CC[C@]2(C)Nc3[nH]ncc3CC12` (stereo partly drawn) and `CC(C)(C)[Si](C)(C)OC1C(=O)C[C@H]2CCCC[C@@H]12` (stereo partly drawn) cannot be ordered by TGI: over 100 µM for the first, over 100 µM for the second.

Compared with `COc1cc(/C=C\c2cc(OC)c(OC)c(OC)c2)cc(N/C=C\C(=O)c2cc(OC)c(OC)c(OC)c2)c1OC`, `CN(C)CCNC(=O)c1cccc2c(Nc3ccc(S(=O)(=O)N=C(N)N)cc3)c3ccccc3nc12` is 8.1-fold higher in TGI: 4.51 µM for the first, 36.7 µM for the second.

`Clc1nc(Cl)nc(Nc2cccc3ccccc23)n1` and `Cc1ccc(NC(=O)CCc2nnc(N)o2)cc1` cannot be ordered by TGI: over 100 µM for the first, over 100 µM for the second.

Going from `O=C1CCC(=O)c2c1c(O)c1ccncc1c2O` to `COC(=O)C1=C(C(=O)OC)C2=S(SC3=C2CCCC3)S1` (stereo not drawn), the TGI rises from 29 µM to 74 µM (2.6-fold).

`C=CCN1CCC23c4c5ccc(O)c4OC2C(=NN=C2CCC4(O)C6Cc7ccc(O)c8c7C4(CCN6CC=C)C2O8)CCC3(O)C1C5` (stereo not drawn) was tested, and the TGI was 33.1 µM.

Going from `COc1cc(/C=C\c2cc(OC)c(OC)c(OC)c2)cc(N/C=C\C(=O)c2cc(OC)c(OC)c(OC)c2)c1OC` to `Clc1nc(Cl)nc(Nc2cccc3ccccc23)n1`, the GI50 rises from 1.92 µM to over 100 µM.

Tested on: SK-MEL-28 melanoma
Experiment: NCI-60 cell line screen, 48 h

`Cn1cnnc1Sc1c([N+](=O)[O-])ncn1C` and `CC1(C)CC(=O)CC(=Nc2ccc([N+](=O)[O-])cc2)C1` cannot be ordered by TGI: over 100 µM for the first, over 100 µM for the second.

Going from `C=CCC1(CN(C)C)CC/C(=C\c2ccc(Cl)cc2)C1=O` (stereo not drawn) to `CC(=O)N1CCC(=O)/C(=C/c2ccccc2)C1`, the TGI falls from over 100 µM to 38.3 µM.

First: C[Si](C)(C)/C(I)=C/CO
Second: C[Si](C)(C)/C(Br)=C\CCN1C(=O)CCC1=O
The TGI of the first is lower: 77.5 µM for the first, over 100 µM for the second.

`C[N+](C)(C)CC1CCC/C1=N\OC(=O)c1ccccc1` (stereo not drawn) and `CCOC(=O)C1SC(=Nc2ccccc2)N=C1C` (stereo not drawn) cannot be ordered by TGI: over 100 µM for the first, over 100 µM for the second.

`CCCCCCCN=C(N)c1ccc(N2CCN(c3ccc(C(N)=NCCCCCCC)cc3)CC2)cc1` and `CCOC(=O)c1ccc(N=Nc2cc(C(=O)OCC)ccc2O)cc1` cannot be ordered by TGI: over 22.4 µM for the first, over 100 µM for the second.

First: Cc1ccc(S(=O)OCc2c(C)c(C)c(COS(=O)c3ccc(C)cc3)c(C)c2C)cc1 (stereo not drawn)
Second: CN(C)CCNC(=O)c1cccc2c(Nc3ccc(S(=O)(=O)N=C(N)N)cc3)c3ccccc3nc12
The TGI of the first is higher: over 100 µM for the first, 71.2 µM for the second.

Going from `C[C@]12CCC(=O)C=C1CC[C@@H]1C2CC[C@]2(C)Nc3[nH]ncc3CC12` (stereo partly drawn) to `C=CCN1CCC23c4c5ccc(O)c4OC2C(=NN=C2CCC4(O)C6Cc7ccc(O)c8c7C4(CCN6CC=C)C2O8)CCC3(O)C1C5` (stereo not drawn), the TGI falls from over 100 µM to 35.3 µM.

Compared with `CCN(CC)CCSc1c2ccccc2nc2c(OC)ccc(OC)c12`, `Clc1nc(Cl)nc(Nc2cccc3ccccc23)n1` is higher in TGI: 8.91 µM for the first, over 100 µM for the second.

`COc1cc(/C=C\c2cc(OC)c(OC)c(OC)c2)cc(N/C=C\C(=O)c2cc(OC)c(OC)c(OC)c2)c1OC` and `COC(=O)C1=C(C(=O)OC)C2=S(SC3=C2CCCC3)S1` (stereo not drawn) cannot be ordered by TGI: over 100 µM for the first, over 100 µM for the second.

First: [N-]=[N+]=N/C1=C/CCCCC(=O)C1
Second: O=C1CCC(=O)c2c1c(O)c1ccncc1c2O
The TGI of the first is higher: over 100 µM for the first, 34.8 µM for the second.

Molecule `Cc1ccc(NC(=O)CCc2nnc(N)o2)cc1` has a TGI of over 100 µM.

First: CCCCCCCN=C(N)c1ccc(N2CCN(c3ccc(C(N)=NCCCCCCC)cc3)CC2)cc1
Second: Clc1nc(Cl)nc(Nc2cccc3ccccc23)n1
The GI50 of the first is lower: 2.08 µM for the first, over 100 µM for the second.

`COc1cc(/C=C\c2cc(OC)c(OC)c(OC)c2)cc(N/C=C\C(=O)c2cc(OC)c(OC)c(OC)c2)c1OC` was tested, and the GI50 was 4.28 µM.

Tested on: T-47D breast
Experiment: NCI-60 cell line screen, 48 h

`CCCCCCCN=C(N)c1ccc(N2CCN(c3ccc(C(N)=NCCCCCCC)cc3)CC2)cc1` and `Clc1nc(Cl)nc(Nc2cccc3ccccc23)n1` cannot be ordered by TGI: over 93.4 µM for the first, over 100 µM for the second.

In the case of `COc1cc(/C=C\c2cc(OC)c(OC)c(OC)c2)cc(N/C=C\C(=O)c2cc(OC)c(OC)c(OC)c2)c1OC`, the TGI is reported as 6.83 µM.

Compared with `COc1cc(/C=C\c2cc(OC)c(OC)c(OC)c2)cc(N/C=C\C(=O)c2cc(OC)c(OC)c(OC)c2)c1OC`, `Clc1nc(Cl)nc(Nc2cccc3ccccc23)n1` is 59-fold higher in GI50: 1.68 µM for the first, 98.5 µM for the second.
